# Measurements as given in the supplement of paper PMC10307832.
# Columns and labels:
# Assay in all cases: relative viability (nuclei count vs DMSO), 5 days (fraction); higher = more cells survive
# Bexarotene + Vorinostat = compound: C=C(c1ccc(C(=O)O)cc1)c1cc2c(cc1C)C(C)(C)CCC2(C)C [Bexarotene] + O=C(CCCCCCC(=O)Nc1ccccc1)NO [Vorinostat] (partner 1 µM)
# Method in brief: (§1)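 Lung cancer cell lines in 1536-well plates were dosed by pin tool the day after seeding, either with one drug alone or with a fixed anchor-drug dose plus five library-drug doses (not always all listed) in √10 steps. After 5 days, cells were fixed and their nuclei stained in one step (final 0.05% Triton X-100, 1% formaldehyde, 1 ug/ml Hoechst), then counted on 4× images. Relative viability is the nuclei count in treated wells divided by that in vehicle wells. Values are medians of duplicate plates.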
# Bexarotene + Pemetrexed = compound: C=C(c1ccc(C(=O)O)cc1)c1cc2c(cc1C)C(C)(C)CCC2(C)C [Bexarotene] + Nc1nc2[nH]cc(CCc3ccc(C(=O)N[C@@H](CCC(=O)O)C(=O)O)cc3)c2c(=O)[nH]1 [Pemetrexed] (partner 0.2 µM)
# Method in brief: as §1
# Bexarotene + Dasatinib = compound: C=C(c1ccc(C(=O)O)cc1)c1cc2c(cc1C)C(C)(C)CCC2(C)C [Bexarotene] + Cc1nc(Nc2ncc(C(=O)Nc3c(C)cccc3Cl)s2)cc(N2CCN(CCO)CC2)n1 [Dasatinib] (partner 0.075 µM)
# Method in brief: as §1
# Bexarotene + Palbociclib = compound: C=C(c1ccc(C(=O)O)cc1)c1cc2c(cc1C)C(C)(C)CCC2(C)C [Bexarotene] + CC(=O)c1c(C)c2cnc(Nc3ccc(N4CCNCC4)cn3)nc2n(C2CCCC2)c1=O [Palbociclib] (partner 0.5 µM)
# Method in brief: as §1
Cell Line,relative viability (Bexarotene + Vorinostat; first compound 0.08 µM),relative viability (Bexarotene + Vorinostat; first compound 0.253 µM),relative viability (Bexarotene + Vorinostat; first compound 0.8 µM),relative viability (Bexarotene + Vorinostat; first compound 2.53 µM),relative viability (Bexarotene + Vorinostat; first compound 8 µM),relative viability (Bexarotene + Pemetrexed; first compound 0.08 µM),relative viability (Bexarotene + Pemetrexed; first compound 0.253 µM),relative viability (Bexarotene + Pemetrexed; first compound 0.8 µM),relative viability (Bexarotene + Pemetrexed; first compound 2.53 µM),relative viability (Bexarotene + Pemetrexed; first compound 8 µM),relative viability (Bexarotene + Dasatinib; first compound 0.08 µM),relative viability (Bexarotene + Dasatinib; first compound 0.253 µM),relative viability (Bexarotene + Dasatinib; first compound 0.8 µM),relative viability (Bexarotene + Dasatinib; first compound 2.53 µM),relative viability (Bexarotene + Dasatinib; first compound 8 µM),relative viability (Bexarotene + Palbociclib; first compound 0.08 µM),relative viability (Bexarotene + Palbociclib; first compound 0.253 µM),relative viability (Bexarotene + Palbociclib; first compound 0.8 µM),relative viability (Bexarotene + Palbociclib; first compound 2.53 µM),relative viability (Bexarotene + Palbociclib; first compound 8 µM)
NCI-H1793,0.666,0.784,0.611,0.604,0.601,0.972,0.828,0.79,0.845,0.852,0.367,0.366,0.409,0.406,0.399,0.31,0.318,0.284,0.264,0.327
NCI-H1915,0.544,0.579,0.482,0.513,0.513,0.519,0.492,0.54,0.473,0.439,0.391,0.319,0.292,0.297,0.297,0.555,0.5,0.442,0.533,0.423
NCI-H1944,0.74,0.683,0.669,0.675,0.532,0.822,0.758,0.857,0.724,0.75,0.24,0.216,0.222,0.221,0.293,0.419,0.427,0.369,0.379,0.345
NCI-H1975,0.884,0.758,0.725,0.754,0.795,0.327,0.331,0.305,0.334,0.323,0.468,0.335,0.391,0.335,0.375,0.667,0.578,0.575,0.616,0.547
NCI-H1993,0.851,0.691,0.783,0.716,0.672,0.714,0.611,0.537,0.534,0.514,0.655,0.573,0.528,0.617,0.613,0.654,0.668,0.597,0.693,0.733
NCI-H2009,0.692,0.86,0.845,0.76,0.834,1.09,1.04,1.12,0.973,0.998,0.323,0.33,0.301,0.322,0.359,0.32,0.239,0.201,0.226,0.322
NCI-H2023,0.644,0.941,0.619,0.57,0.528,0.283,0.251,0.202,0.202,0.196,0.628,0.64,0.561,0.522,0.5,0.312,0.423,0.4,0.359,0.269
NCI-H2085,0.672,0.804,0.69,0.719,0.692,0.832,0.808,0.753,0.751,0.74,0.25,0.2,0.19,0.218,0.241,0.411,0.434,0.415,0.374,0.383
